Measured values reported in PubChem BioAssay (NCI).
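Dose response: 5 concentrations. Exposure: 48 h. Format: 96-well plates. Endpoint: linear interpolation; highest concentration if not reached. GI50 marks 50% less growth. Definition used: TGI = concentration required for complete inhibition of growth.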

Experiments:
Test in all cases: DTP human tumour cell line panel, 48 h
UO-31 renal = system: UO-31 renal
SK-OV-3 ovarian = system: SK-OV-3 ovarian
NCI-H226 lung = system: NCI-H226 lung
SF-295 CNS = system: SF-295 CNS
HCT-116 colon = system: HCT-116 colon
NCI-H522 lung = system: NCI-H522 lung
HS 578T breast = system: HS 578T breast
A498 renal = system: A498 renal
NCI/ADR-RES ovarian = system: NCI/ADR-RES ovarian
LOX IMVI melanoma = system: LOX IMVI melanoma

SMILES	TGI (UO-31 renal)	TGI (SK-OV-3 ovarian)	TGI (NCI-H226 lung)	TGI (SF-295 CNS)	TGI (HCT-116 colon)	TGI (NCI-H522 lung)	TGI (HS 578T breast)	TGI (A498 renal)	TGI (NCI/ADR-RES ovarian)	TGI (LOX IMVI melanoma)	GI50 (UO-31 renal)	GI50 (SK-OV-3 ovarian)	GI50 (NCI-H226 lung)	GI50 (LOX IMVI melanoma)	GI50 (SF-295 CNS)	GI50 (HCT-116 colon)	GI50 (HS 578T breast)	GI50 (A498 renal)	GI50 (NCI/ADR-RES ovarian)	GI50 (NCI-H522 lung)
O=NNc1nc(-c2ccccn2)nc2ccccc12	> 100 µM	> 100 µM	62.5 µM	> 100 µM	16.5 µM	9.21 µM	> 100 µM	> 100 µM	63.5 µM											
O=C1COc2cc3c(cc2N1)SCC(=O)N3	> 100 µM	> 100 µM	> 100 µM	> 100 µM	> 100 µM	> 100 µM														
Cc1[nH]n(C(=O)c2ccc(Cl)cc2)c(=O)c1/C=C1\C(O)=CC(=O)c2ccccc21	> 100 µM	> 100 µM		> 100 µM	> 100 µM	> 100 µM		> 100 µM		> 100 µM										
CC(=O)Nc1ccc(C(=O)NN2C(=O)CSC2c2ccccc2)cc1 (stereo unspecified)	> 100 µM	> 100 µM	> 100 µM	> 100 µM	> 100 µM		> 100 µM	> 100 µM	> 100 µM											
CN(C)C(=O)c1cc2cnc(Nc3ccc(N4CCNCC4)cn3)nc2n1C1CCCC1	62.1 µM	> 100 µM	> 100 µM	42 µM	48.7 µM		53.5 µM	30.9 µM	> 100 µM	26.3 µM	4.56 µM	34.8 µM	25.2 µM	4.44 µM	13.1 µM	4.25 µM	13.8 µM	11.8 µM	37.8 µM	
CN1C/C(=C\c2ccco2)c2nc(N)nc(-c3ccco3)c2C1	> 100 µM	> 100 µM	> 100 µM	> 100 µM	> 100 µM	> 100 µM		> 100 µM		> 100 µM										
CCOC(=O)Oc1ccc2[nH]c3c(C)cc(N)c(C)c3c2c1	> 100 µM		> 100 µM	> 100 µM	> 100 µM	> 100 µM				> 100 µM										
CCOC(=O)C1C(=O)C(=O)N2CCc3c([nH]c4ccccc34)C12 (stereo unspecified)	> 100 µM	> 100 µM		> 100 µM	> 100 µM	> 100 µM		> 100 µM												
COc1cc(COC(=O)NC(Cc2cccs2)C(=O)O)c([N+](=O)[O-])cc1OC (stereo unspecified)	> 100 µM	> 100 µM	> 100 µM	> 100 µM	> 100 µM		> 100 µM	> 100 µM	> 100 µM											
Cn1c(=O)c(-c2c(Cl)cccc2Cl)cc2cnc(Nc3ccc(N4CCOCC4)cc3)nc21	6.66 µM	> 100 µM	> 100 µM	> 100 µM	0.148 µM	0.42 µM		0.14 µM	0.09 µM	1.31 µM	2.29 µM	< 0.01 µM	0.0748 µM	0.178 µM	0.2 µM	< 0.01 µM		< 0.0433 µM	0.0158 µM	0.0202 µM
Nc1ccc2ncc(Nc3ccc(Cl)c(Cl)c3)nc2c1	> 100 µM	> 100 µM	62.6 µM	49.9 µM	57.3 µM	48.8 µM				> 100 µM										
